# Source: patent US12138336B2, “Personal care composition comprising water insoluble solid organic compound” (The Procter & Gamble Company, priority 2018, dated 2024)
# Where two headings read alike, the source gives them in different places.
# Experiments:
# [1] = Water solubility at 25° C.; format: physicochemical; settings: for solubility: water, 25 °C
# [2] = Di-electric constant, BI-870 Liquid Dielectric Constant Meter; format: physicochemical; settings: third liquid compounds; room temperature (23.1-23.4° C.)
# Procedure: Dielectric constant is measured at room temperature (23.1 ˜23.4° C.) using BI-870 Liquid Dielectric Constant Meter (Brookhaven Instruments, Corp., New York).
# [3] = known property; cited from earlier work
# [4] = Crystals of the solid organic compound present in the composition at 25° C. or not; format: physicochemical; settings: added dissolved in ethanol/water mixture; cationic surfactant and high melting point fatty compounds; especially at higher amount
# [5] = third liquid compounds, read-out: Solubility in H2O
# [6] = solid organic compounds, 25° C.
# [7] = first liquid oily compounds, read-out: Solubility in H2O
smiles,measurement,setting,value
"Cc1cc(CC(C)CC(C)(C)C)n(O)c(=O)c1 (stereo not shown) [Piroctone, reference compound]",solubility,"[1]; solid organic compounds, 25° C., read-out: Water Solubility",240 µg/mL
OCCOc1ccccc1 [Phenoxyethanol],solubility,[1]; [5],26000 µg/mL
"Cc1cc(C2CCCCC2)n(O)c(=O)c1 [Ciclopirox Olamine, reference compound]",Water Solubility,[1]; [6],4450 µg/mL
"Cc1cc(C2CCCCC2)n(O)c(=O)c1 [Ciclopirox, reference compound]",Water Solubility,[1]; [6],1410 µg/mL
OCc1ccccc1 [Benzyl Alcohol],solubility,[1]; [5],43000 µg/mL
same,Di-electric constant,[2],13.69
CCCCCCC(C=O)=Cc1ccccc1 [Hexyl Cinnamic Aldehyde],solubility,[1]; [7],2.75 µg/mL
CCCCCC1C(=O)CCC1CC(=O)OC (stereo not shown) [Methyl Dihydro Jasmonate],solubility,[1]; [7],91.7 µg/mL
CCCCCCCCCCCC(=O)N(C)CC(=O)OC(C)C [Isoropyl N-Lauroyl Sarcosinate],Solubility in H2O,[1]; first liquid oily compounds,Negligible (lower than 0.1) g/L
C=CC(C)CCCC(C)(C)O (stereo not shown) [Dihydro Myrcenol],Solubility in H2O,[1]; first liquid oily compounds,Negligible (lower than 0.1) g/L
Cc1cc(CC(C)CC(C)(C)C)n(O)c(=O)c1.NCCO (stereo not shown) [Piroctone Olamine],Water Solubility,[1]; [6],30 µg/mL
same,"Solubility in water, in words",[3],very limited solubility in water
same,Crystal formation in aqueous hair conditioning compositions,[4],forms crystals
